Read-outs that look alike come from different tables or passages of the source.
Columns and labels:
[1] = test system: human primary tumor cells; test: Inhibition of primary tumor cell cultures vs amplification of the gene encoding the NK1 receptor (Example 6; tumor type per table line); type: cell-based; settings: for Percentage of inhibition of cell cultures: 100 micromolar
Endometrium carcinoma = test: cells; settings: Homo sapiens, 1 micromolar
Method: (§1) Cell cultures. To obtain tumor cells from human primary tumors we used the method described in De Bari et al. (De Bari et al. 2001). Briefly, small pieces of the tumors were digested into a hyaluronidase solution (Sigma-Aldrich, USA) at a concentration of 1 mg/ml during 15 minutes at 37°C, and then they were treated with 6 mg/ml of collagenase type IV (Invitrogen) during 2 hours at 37°C. Consecutively, cells were washed, and resuspended in the DMEM culture medium with high concentration of glucose (Dulbecco's Modified Eagle's Medium, Invitrogen) supplemented with 1% of antibiotics-antimycotics (Invitrogen) and with 1% of sodium pyruvate (Invitrogen), and the cells were seeded in culture slides at a concentration of 10.000 cells per square centimeter. When cells reached confluence, the adherent cells were separated using sterile trypsin at 0,5% (Invitrogen) and they were used among passages 3 and 9. For the assays shown next, tumor cells were seeded on slides at a concentration of 25.000 cells per well. A total of 6 wells containing the tumor cells were used as survival control. […] All the cultures were kept during 48 hours and later on recollected for their analysis.
(§2) Immunohistochemistry techniques. The presence of NK1 receptors was also analyzed using immunohistochemistry techniques. Briefly, a sample of each of the cultures of the cell lines used in the present invention, was centrifuged (5 minutes at 1.500 rpm) and the pellet obtained was dehydrated using increasing concentrations of ethanol and, finally, xylol. Then, said dehydrated samples were embedded in paraffin, creating a block of cells. Such paraffin blocks were cut with a microtome at 5 microns thickness, and were placed on microscope slides adequate to perform immunohistochemistry techniques. Consecutively, they were de-paraffinized by immersing them in xylol, to be finally hydrated using a solution containing decreasing concentrations of ethanol, and finally submerged them into water. […] After this, the samples were left to cool down at room temperature for 10 minutes. The endogenous peroxidase activity was blocked with 3% peroxide of hydrogen for 30 minutes at room temperature. After washing the samples with 0.05 M of Tris buffer, they were incubated with 10% non-immune pork serum at for 30 minutes at room temperature. To analyze the expression of NK1 receptors, the cellular samples were incubated in the presence of anti-NK1 antibodies (S8305, Sigma-Aldrich) diluted 1:1000, overnight at 4°C. Afterwards, the samples were washed in Tris buffer 0.05 M at room temperature. The next step was the addition of Envision System-HRP (Dako) reagents for 30 minutes at room temperature. Then, the samples were washed again in Tris buffer 0.05 M and the immunoreactivity was visualized through light microscopy with a chromogenic solution containing 3,3'-Diaminobenzidine (DAB+; Dako, USA). To differentiate the cell nuclei, they were slightly stained with hematoxylin. As negative control, it was used samples not incubated with the primary antibody anti-NK1, which was replaced by non-immune serum. All the samples were evaluated.
(§3) To value the immunostaining in each of the cases six cuts were performed to be analyzed by the immunohistochemistry technique. In each of the six cuts, it was counted cells in 20 fields (magnification 400x) using an Olympus microscope (model CX31). In each field it was counted the total number of cells and the number of cells presenting immunostaining, calculating afterwards the percentage of cells which presented immunostaining.

Prostate carcinoma = test: cells; settings: Homo sapiens, 1 micromolar
Method: as §1, §2, §3

[2] = test system: Breast carcinoma (ductal adenocarcinoma); test: Inhibition of primary tumor cell cultures vs Kras mutation (Example 2); type: cell-based, human; settings: Breast carcinoma (ductal adenocarcinoma), 100 micromolar
Method: (§4) Cell cultures. […] Briefly, small pieces of the tumors were digested into a hyaluronidase solution (Sigma-Aldrich, USA) at a concentration of 1 mg/ml during 15 minutes at 37°C, and then they were treated with 6 mg/ml of collagenase type IV (Invitrogen) during 2 hours at 37°C. Consecutively, cells were washed, and resuspended in the DMEM culture medium with high concentration of glucose (Dulbecco's Modified Eagle's Medium, Invitrogen) supplemented with 1% of antibiotics-antimycotics (Invitrogen) and with 1% of sodium pyruvate (Invitrogen), and the cells were seeded in culture slides at a concentration of 10.000 cells per square centimeter. When cells reached confluence, the adherent cells were separated using sterile trypsin at 0,5% (Invitrogen) and they were used among passages 3 and 9. For the assays shown next, tumor cells were seeded on slides at a concentration of 25.000 cells per well. A total of 6 wells containing the tumor cells were used as survival control. […] All the cultures were kept during 48 hours and later on recollected for their analysis.
(§5) In each case the presence or not of mutations in K-ras gene was determined.
(§6) To determine the existence of mutations in the K-ras gene DNA from cancer tumor cells was extracted from samples obtained from the different cancer tumor cells, using DNA extraction kits from Takara (Madison, WI, US) or Ambion (Huntingdon, Cambridgeshire, United Kingdom), following the manufacturer's instructions, and as it has been previously published (Di Fiore F, et al. 2007). Consecutively it was analyzed by sequencing the exon 2 of the KRAS gene, , by means of PCR amplification from previously extracted cancer tumor DNA, using the following sense primer (SEQ ID NO. 15): 5'-[sequence]-3' and anti-sense primer (SEQ ID NO. 16): 5'-[sequence]-3'. After the purification using the Qiagen extraction kit, the PCR products were sequenced using the Big Dye Terminator Kit V3.1 (Applied Biosystems, Foster City, CA, U.S.) and an ABI Prism 377 or 3100 DNA sequencer (Applied Biosystems). The presence of a heterozygous mutation in the KRAS gene in cancer tumor cells of the cultures was defined as the appearance of a mutant peak of a height of at least a third of the wild type. All the sequence analysis were executed at least twice in two independent PCR.
(§7) The antibody against NK1 receptor (Table 16) was used at 1/50 concentration. The percentages of inhibition are expressed in percentage of variation in relation to control ± standard deviation.

Non Hodgkin Lymphoma B = test: Inhibition of primary tumor cell cultures (48 hours) vs NK1 receptor immunostaining (Example 1); type: cell-based; settings: Homo sapiens, 1 micromolar, read-out: Percentage of inhibition of cell cultures
Method: as §1, §2, §3

[3] = test system: Lung carcinoma (non small cell lung carcinoma); test: Inhibition of primary tumor cell cultures vs Kras mutation (Example 2); type: cell-based, human; settings: Lung carcinoma (non small cell lung carcinoma), 100 micromolar
Method: (§8) To obtain tumor cells from human primary tumors we used the method described in De Bari et al. (De Bari et al. 2001). Briefly, small pieces of the tumors were digested into a hyaluronidase solution (Sigma-Aldrich, USA) at a concentration of 1 mg/ml during 15 minutes at 37°C, and then they were treated with 6 mg/ml of collagenase type IV (Invitrogen) during 2 hours at 37°C. Consecutively, cells were washed, and resuspended in the DMEM culture medium with high concentration of glucose (Dulbecco's Modified Eagle's Medium, Invitrogen) supplemented with 1% of antibiotics-antimycotics (Invitrogen) and with 1% of sodium pyruvate (Invitrogen), and the cells were seeded in culture slides at a concentration of 10.000 cells per square centimeter. When cells reached confluence, the adherent cells were separated using sterile trypsin at 0,5% (Invitrogen) and they were used among passages 3 and 9. For the assays shown next, tumor cells were seeded on slides at a concentration of 25.000 cells per well. A total of 6 wells containing the tumor cells were used as survival control. […] All the cultures were kept during 48 hours and later on recollected for their analysis.
as §5, §6, §7

[4] = test system: Gastric carcinoma (Adenocarcinoma); test: as above; type: cell-based, human; settings: Gastric carcinoma (Adenocarcinoma), 100 micromolar
Method: as §4, §5, §6, §7

Breast carcinoma = test: Inhibition of primary tumor cell cultures (48 hours) vs NK1 receptor immunostaining (Example 1); type: cell-based; settings: Homo sapiens, 1 micromolar, read-out: Percentage of inhibition of cell cultures
Method: as §1, §2, §3

Fibrosarcoma = test: as above; type: cell-based; settings: Homo sapiens, 1 micromolar, read-out: Percentage of inhibition of cell cultures
Method: as §1, §2, §3

[5] = test system: Urinary bladder carcinoma (transitional cell carcinoma); test: Inhibition of primary tumor cell cultures vs Kras mutation (Example 2); type: cell-based, human; settings: Urinary bladder carcinoma (transitional cell carcinoma), 100 micromolar
Method: as §8, §5, §6, §7

Gastric carcinoma = test: Inhibition of primary tumor cell cultures (48 hours) vs NK1 receptor immunostaining (Example 1); type: cell-based; settings: Homo sapiens, 1 micromolar, read-out: Percentage of inhibition of cell cultures
Method: as §1, §2, §3

[6] = read-out: Percentage of inhibition of cell cultures, NK1 receptor immunostaining Group 1 (less than 20% of the cells)
[7] = read-out: Percentage of inhibition of cell cultures, NK1 receptor immunostaining Group 2 (20-80% of the cells)
[8] = read-out: Percentage of inhibition of cell cultures, NK1 receptor immunostaining Group 3 (more than 80% of the cells)
[9] = read-out: Percentage of inhibition of cell cultures, NK1 receptor immunostaining Intensity grade 1
[10] = read-out: Percentage of inhibition of cell cultures, NK1 receptor immunostaining Intensity grade 2
[11] = read-out: Percentage of inhibition of cell cultures, NK1 receptor immunostaining Intensity grade 3
[12] = Cases with Kras non-mutated (wild type)
[13] = NK1 receptor immunostaining Group 1 (less than 20% of the cells)
[14] = NK1 receptor immunostaining Group 2 (20-80% of the cells)
[15] = NK1 receptor immunostaining Group 3 (more than 80% of the cells)
[16] = NK1 receptor immunostaining Intensity grade 1
[17] = NK1 receptor immunostaining Intensity grade 2
[18] = NK1 receptor immunostaining Intensity grade 3

SMILES: Cc1cc(F)ccc1[C@H]1CNCCN1C(=O)N(C)[C@H](C)c1cc(C(F)(F)F)cc(C(F)(F)F)c1 [Vestipitant]
- Percentage of inhibition of cell cultures ([1]; Lung carcinoma (non small cell lung carcinoma), Cases with amplification of the gene that encodes for the NK1 receptor): 93±5 percentage
- Percentage of inhibition of cell cultures ([1]; Lung carcinoma (non small cell lung carcinoma), Cases without amplification of the gene that encodes for the NK1 receptor): 24±4 percentage
- Percentage of inhibition of cell cultures ([1]; Lung carcinoma (small cell lung carcinoma), Cases with amplification of the gene that encodes for the NK1 receptor): 94±4 percentage
- Percentage of inhibition of cell cultures ([1]; Lung carcinoma (small cell lung carcinoma), Cases without amplification of the gene that encodes for the NK1 receptor): 25±3 percentage
- Percentage of inhibition of cell cultures ([1]; Melanoma (Nodular Melanoma), Cases with amplification of the gene that encodes for the NK1 receptor): 96±5 percentage
- Percentage of inhibition of cell cultures ([1]; Melanoma (Nodular Melanoma), Cases without amplification of the gene that encodes for the NK1 receptor): 24±6 percentage
- Percentage of inhibition of cell cultures ([1]; Non Hodgkin Lymphoma B (diffuse B cell lymphoma), Cases with amplification of the gene that encodes for the NK1 receptor): 94±6 percentage
- Percentage of inhibition of cell cultures ([1]; Non Hodgkin Lymphoma B (diffuse B cell lymphoma), Cases without amplification of the gene that encodes for the NK1 receptor): 27±5 percentage
- Percentage of inhibition of cell cultures ([1]; Non Hodgkin Lymphoma T (diffuse T cell lymphoma), Cases with amplification of the gene that encodes for the NK1 receptor): 95±4 percentage
- Percentage of inhibition of cell cultures ([1]; Non Hodgkin Lymphoma T (diffuse T cell lymphoma), Cases without amplification of the gene that encodes for the NK1 receptor): 29±3 percentage
- Percentage of inhibition of cell cultures ([1]; Ovarian carcinoma(Adenocarcinoma), Cases with amplification of the gene that encodes for the NK1 receptor): 96±5 percentage
- Percentage of inhibition of cell cultures ([1]; Ovarian carcinoma(Adenocarcinoma), Cases without amplification of the gene that encodes for the NK1 receptor): 25±4 percentage
- Percentage of inhibition of cell cultures ([1]; Pancreatic carcinoma (Adenocarcinoma), Cases with amplification of the gene that encodes for the NK1 receptor): 93±4 percentage
- Percentage of inhibition of cell cultures ([1]; Pancreatic carcinoma (Adenocarcinoma), Cases without amplification of the gene that encodes for the NK1 receptor): 25±3 percentage
- Percentage of inhibition of cell cultures ([1]; Prostate carcinoma, Cases with amplification of the gene that encodes for the NK1 receptor): 96±6 percentage
- Percentage of inhibition of cell cultures ([1]; Prostate carcinoma, Cases without amplification of the gene that encodes for the NK1 receptor): 25±6 percentage
- Percentage of inhibition of cell cultures ([1]; Renal cell carcinoma (clear cell renal cell carcinoma), Cases with amplification of the gene that encodes for the NK1 receptor): 94±5 percentage
- Percentage of inhibition of cell cultures ([1]; Renal cell carcinoma (clear cell renal cell carcinoma), Cases without amplification of the gene that encodes for the NK1 receptor): 27±4 percentage
- Percentage of inhibition of cell cultures ([1]; Thyroid carcinoma (follicular carcinoma), Cases with amplification of the gene that encodes for the NK1 receptor): 94±6 percentage
- Percentage of inhibition of cell cultures ([1]; Thyroid carcinoma (follicular carcinoma), Cases without amplification of the gene that encodes for the NK1 receptor): 25±5 percentage
- Percentage of inhibition of cell cultures ([1]; Thyroid carcinoma (papillary carcinoma), Cases with amplification of the gene that encodes for the NK1 receptor): 97±4 percentage
- Percentage of inhibition of cell cultures ([1]; Thyroid carcinoma (papillary carcinoma), Cases without amplification of the gene that encodes for the NK1 receptor): 26±3 percentage
- Percentage of inhibition of cell cultures ([1]; Undifferentiated Pleomorphic Sarcoma (malignant fibrous histiocytoma grade 3), Cases with amplification of the gene that encodes for the NK1 receptor): 95±7 percentage
- Percentage of inhibition of cell cultures ([1]; Undifferentiated Pleomorphic Sarcoma (malignant fibrous histiocytoma grade 3), Cases without amplification of the gene that encodes for the NK1 receptor): 27±4 percentage
- Percentage of inhibition of cell cultures ([1]; Urinary bladder carcinoma (transitional cell carcinoma), Cases with amplification of the gene that encodes for the NK1 receptor): 95±5 percentage
- Percentage of inhibition of cell cultures ([1]; Urinary bladder carcinoma (transitional cell carcinoma), Cases without amplification of the gene that encodes for the NK1 receptor): 24±5 percentage
- inhibition of cell proliferation ([1]; cancer cell cultures which show amplification in the genomic region encoding the NK1 receptor, compared, non-peptidic antagonists 100 micromolar, antibody 1/50): higher inhibition
- inhibition at 1 µM (Endometrium carcinoma; [6]): 15 ± 3%
- inhibition at 1 µM (Endometrium carcinoma; [7]): 44 ± 3%
- inhibition at 1 µM (Endometrium carcinoma; [8]): 93 ± 6%
- inhibition at 1 µM (Endometrium carcinoma; [9]): 18 ± 2%
- inhibition at 1 µM (Endometrium carcinoma; [10]): 47 ± 4%
- inhibition at 1 µM (Endometrium carcinoma; [11]): 93 ± 5%
- inhibition at 1 µM (Prostate carcinoma; [6]): 17 ± 4%
- inhibition at 1 µM (Prostate carcinoma; [7]): 46 ± 3%
- inhibition at 1 µM (Prostate carcinoma; [8]): 92 ± 5%
- inhibition at 1 µM (Prostate carcinoma; [9]): 18 ± 4%
- inhibition at 1 µM (Prostate carcinoma; [10]): 47 ± 4%
- inhibition at 1 µM (Prostate carcinoma; [11]): 92 ± 4%
- Percentage of inhibition of cell cultures ([2]; Cases with Kras mutated): 26±4 percentage
- Percentage of inhibition of cell cultures [2, 12]: 97±5 percentage
- inhibition at 1 µM (Non Hodgkin Lymphoma B; [13]): 14 ± 3%
- inhibition at 1 µM (Non Hodgkin Lymphoma B; [14]): 45 ± 5%
- inhibition at 1 µM (Non Hodgkin Lymphoma B; [15]): 93 ± 5%
- inhibition at 1 µM (Non Hodgkin Lymphoma B; [16]): 16 ± 4%
- inhibition at 1 µM (Non Hodgkin Lymphoma B; [17]): 47 ± 5%
- inhibition at 1 µM (Non Hodgkin Lymphoma B; [18]): 93 ± 4%
- Percentage of inhibition of cell cultures ([3]; Cases with Kras mutated): 24±5 percentage
- Percentage of inhibition of cell cultures [3, 12]: 96±6 percentage
- Percentage of inhibition of cell cultures ([4]; Cases with Kras mutated): 24±4 percentage
- Percentage of inhibition of cell cultures [4, 12]: 96±4 percentage
- inhibition at 1 µM (Breast carcinoma; [13]): 12 ± 3%
- inhibition at 1 µM (Breast carcinoma; [14]): 46 ± 3%
- inhibition at 1 µM (Breast carcinoma; [15]): 93 ± 4%
- inhibition at 1 µM (Breast carcinoma; [16]): 19 ± 4%
- inhibition at 1 µM (Breast carcinoma; [17]): 45 ± 3%
- inhibition at 1 µM (Breast carcinoma; [18]): 93 ± 3%
- inhibition at 1 µM (Fibrosarcoma; [13]): 16 ± 3%
- inhibition at 1 µM (Fibrosarcoma; [14]): 45 ± 3%
- inhibition at 1 µM (Fibrosarcoma; [15]): 91 ± 3%
- inhibition at 1 µM (Fibrosarcoma; [16]): 18 ± 2%
- inhibition at 1 µM (Fibrosarcoma; [17]): 47 ± 3%
- inhibition at 1 µM (Fibrosarcoma; [18]): 91 ± 2%
- Percentage of inhibition of cell cultures ([5]; Cases with Kras mutated): 25±5 percentage
- Percentage of inhibition of cell cultures [5, 12]: 95±6 percentage
- inhibition at 1 µM (Gastric carcinoma; [13]): 11 ± 3%
- inhibition at 1 µM (Gastric carcinoma; [14]): 48 ± 3%
- inhibition at 1 µM (Gastric carcinoma; [15]): 92 ± 3%
- inhibition at 1 µM (Gastric carcinoma; [16]): 19 ± 4%
- inhibition at 1 µM (Gastric carcinoma; [17]): 49 ± 4%
- inhibition at 1 µM (Gastric carcinoma; [18]): 92 ± 4%

Reference: EP2966448B1, “METHOD FOR THE PREDICTION OR PROGNOSIS OF THE RESPONSE OF A HUMAN SUBJECT SUFFERING FROM CANCER TO TREATMENT WITH AN ANTAGONIST OF THE NK1 RECEPTOR” (priority 2013, dated 2014)
